Assay results taken from ChEMBL document CHEMBL5465560, “Selectivity Literature for EUbOPEN Chemogenomic Library” (2024).
One block for each compound: values may come before it.

Tests used:
[1] = system: Phosphatidylinositol 4,5-bisphosphate 3-kinase catalytic subunit alpha isoform (Homo sapiens), P42336 [H1047Y]; conditions: at 10 µM
[2] = molecular target: Mitogen-activated protein kinase kinase kinase 11 (Homo sapiens) (UniProt Q16584); assay: Selectivity interaction (KinomeScan (DiscoverX)) EUB0001619a MAP3K11; conditions: at 1 µM
Mitogen-activated protein kinase kinase kinase 11 (Homo sapiens), sequence (Q16584 whole entry, looked up): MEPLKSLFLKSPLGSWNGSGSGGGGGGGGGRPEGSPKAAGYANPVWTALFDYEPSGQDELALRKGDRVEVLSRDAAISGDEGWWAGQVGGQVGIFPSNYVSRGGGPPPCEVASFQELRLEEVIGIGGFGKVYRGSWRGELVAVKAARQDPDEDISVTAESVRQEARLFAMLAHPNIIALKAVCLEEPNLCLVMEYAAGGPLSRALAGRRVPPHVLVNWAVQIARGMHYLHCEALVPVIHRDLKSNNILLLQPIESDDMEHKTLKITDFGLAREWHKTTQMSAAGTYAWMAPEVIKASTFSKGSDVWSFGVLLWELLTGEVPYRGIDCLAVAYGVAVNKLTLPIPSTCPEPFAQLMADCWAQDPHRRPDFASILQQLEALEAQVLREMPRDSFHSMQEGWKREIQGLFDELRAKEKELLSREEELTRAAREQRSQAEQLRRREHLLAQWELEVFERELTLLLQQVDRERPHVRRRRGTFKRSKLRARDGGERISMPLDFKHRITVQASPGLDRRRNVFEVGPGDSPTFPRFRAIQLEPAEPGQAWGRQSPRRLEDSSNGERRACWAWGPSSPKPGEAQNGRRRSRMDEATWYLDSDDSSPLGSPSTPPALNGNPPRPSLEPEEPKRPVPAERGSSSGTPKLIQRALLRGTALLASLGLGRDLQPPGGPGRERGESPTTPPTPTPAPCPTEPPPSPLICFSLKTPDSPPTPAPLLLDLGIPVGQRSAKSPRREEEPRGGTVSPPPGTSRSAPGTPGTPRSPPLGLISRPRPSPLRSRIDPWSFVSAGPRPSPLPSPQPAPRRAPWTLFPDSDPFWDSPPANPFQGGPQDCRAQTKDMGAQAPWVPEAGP

[3] = molecular target: Serine/threonine-protein kinase N1 (Homo sapiens, UniProt Q16512); assay: Selectivity interaction (Kinase panel (KiNativ target engagement assay in Jurkat cells)) EUB0001635a PKN1; type: cell-based; conditions: Selectivity number of off-targets 0.0, Selectivity number of targets 233.0, Source Knowledge https://www.sciencedirect.com/science/article/pii/S2451945619300674?via%3Dihub, at 1 µM
Serine/threonine-protein kinase N1, sequence (Q16512 2-942 limits assumed): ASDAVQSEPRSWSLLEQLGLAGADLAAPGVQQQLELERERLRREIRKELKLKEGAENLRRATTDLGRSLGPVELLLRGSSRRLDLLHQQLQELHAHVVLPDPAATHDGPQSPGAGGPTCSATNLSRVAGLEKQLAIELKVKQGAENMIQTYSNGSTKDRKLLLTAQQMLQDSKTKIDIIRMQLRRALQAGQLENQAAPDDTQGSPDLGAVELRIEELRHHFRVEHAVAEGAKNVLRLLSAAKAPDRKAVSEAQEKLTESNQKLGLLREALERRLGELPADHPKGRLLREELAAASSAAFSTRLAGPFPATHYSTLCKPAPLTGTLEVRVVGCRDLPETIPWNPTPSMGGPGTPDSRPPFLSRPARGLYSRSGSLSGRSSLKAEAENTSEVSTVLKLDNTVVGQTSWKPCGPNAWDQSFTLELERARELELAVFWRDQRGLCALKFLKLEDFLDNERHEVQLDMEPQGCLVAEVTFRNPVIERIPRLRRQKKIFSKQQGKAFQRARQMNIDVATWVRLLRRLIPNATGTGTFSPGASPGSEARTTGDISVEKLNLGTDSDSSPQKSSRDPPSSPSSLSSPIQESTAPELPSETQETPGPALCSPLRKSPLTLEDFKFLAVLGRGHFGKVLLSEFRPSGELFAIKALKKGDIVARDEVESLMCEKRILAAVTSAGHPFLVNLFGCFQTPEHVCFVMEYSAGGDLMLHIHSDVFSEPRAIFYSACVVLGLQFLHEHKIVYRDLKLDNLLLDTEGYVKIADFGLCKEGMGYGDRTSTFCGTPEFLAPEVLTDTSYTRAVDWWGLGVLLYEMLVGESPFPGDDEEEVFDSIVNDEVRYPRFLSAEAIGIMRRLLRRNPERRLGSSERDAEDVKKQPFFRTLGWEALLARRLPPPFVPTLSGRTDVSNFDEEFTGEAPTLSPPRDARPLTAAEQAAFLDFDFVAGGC

[4] = molecular target: Ribosomal protein S6 kinase alpha-3 (Homo sapiens, UniProt P51812); assay: Selectivity interaction (ActivX KiNativ screen (kinase selectivity in THP-1 cell lysates)) EUB0000639a RPS6KA3; type: subcellular; conditions: lysate, at 0.2 µM
Ribosomal protein S6 kinase alpha-3, sequence (P51812 whole entry): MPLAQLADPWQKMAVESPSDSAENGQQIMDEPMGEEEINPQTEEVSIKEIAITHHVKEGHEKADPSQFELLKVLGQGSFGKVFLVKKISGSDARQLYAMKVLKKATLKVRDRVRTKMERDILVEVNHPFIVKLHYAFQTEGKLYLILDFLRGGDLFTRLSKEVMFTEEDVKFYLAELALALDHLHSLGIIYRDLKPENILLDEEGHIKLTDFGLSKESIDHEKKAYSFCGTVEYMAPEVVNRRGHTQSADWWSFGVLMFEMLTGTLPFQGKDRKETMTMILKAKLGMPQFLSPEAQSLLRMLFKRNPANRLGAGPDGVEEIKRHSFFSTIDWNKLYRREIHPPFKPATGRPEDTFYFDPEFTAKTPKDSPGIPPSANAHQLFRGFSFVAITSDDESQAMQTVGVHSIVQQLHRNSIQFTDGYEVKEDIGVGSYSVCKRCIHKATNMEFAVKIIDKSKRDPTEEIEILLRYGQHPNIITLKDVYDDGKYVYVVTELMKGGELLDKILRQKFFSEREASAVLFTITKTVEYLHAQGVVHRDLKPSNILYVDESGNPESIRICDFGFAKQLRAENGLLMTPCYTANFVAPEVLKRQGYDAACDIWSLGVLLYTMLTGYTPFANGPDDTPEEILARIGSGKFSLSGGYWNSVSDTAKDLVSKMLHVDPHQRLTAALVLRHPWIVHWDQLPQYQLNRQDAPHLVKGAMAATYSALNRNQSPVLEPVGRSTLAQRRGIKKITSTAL

[5] = molecular target: Vascular endothelial growth factor receptor 2 (Homo sapiens, UniProt P35968)
Vascular endothelial growth factor receptor 2, sequence (P35968 whole entry): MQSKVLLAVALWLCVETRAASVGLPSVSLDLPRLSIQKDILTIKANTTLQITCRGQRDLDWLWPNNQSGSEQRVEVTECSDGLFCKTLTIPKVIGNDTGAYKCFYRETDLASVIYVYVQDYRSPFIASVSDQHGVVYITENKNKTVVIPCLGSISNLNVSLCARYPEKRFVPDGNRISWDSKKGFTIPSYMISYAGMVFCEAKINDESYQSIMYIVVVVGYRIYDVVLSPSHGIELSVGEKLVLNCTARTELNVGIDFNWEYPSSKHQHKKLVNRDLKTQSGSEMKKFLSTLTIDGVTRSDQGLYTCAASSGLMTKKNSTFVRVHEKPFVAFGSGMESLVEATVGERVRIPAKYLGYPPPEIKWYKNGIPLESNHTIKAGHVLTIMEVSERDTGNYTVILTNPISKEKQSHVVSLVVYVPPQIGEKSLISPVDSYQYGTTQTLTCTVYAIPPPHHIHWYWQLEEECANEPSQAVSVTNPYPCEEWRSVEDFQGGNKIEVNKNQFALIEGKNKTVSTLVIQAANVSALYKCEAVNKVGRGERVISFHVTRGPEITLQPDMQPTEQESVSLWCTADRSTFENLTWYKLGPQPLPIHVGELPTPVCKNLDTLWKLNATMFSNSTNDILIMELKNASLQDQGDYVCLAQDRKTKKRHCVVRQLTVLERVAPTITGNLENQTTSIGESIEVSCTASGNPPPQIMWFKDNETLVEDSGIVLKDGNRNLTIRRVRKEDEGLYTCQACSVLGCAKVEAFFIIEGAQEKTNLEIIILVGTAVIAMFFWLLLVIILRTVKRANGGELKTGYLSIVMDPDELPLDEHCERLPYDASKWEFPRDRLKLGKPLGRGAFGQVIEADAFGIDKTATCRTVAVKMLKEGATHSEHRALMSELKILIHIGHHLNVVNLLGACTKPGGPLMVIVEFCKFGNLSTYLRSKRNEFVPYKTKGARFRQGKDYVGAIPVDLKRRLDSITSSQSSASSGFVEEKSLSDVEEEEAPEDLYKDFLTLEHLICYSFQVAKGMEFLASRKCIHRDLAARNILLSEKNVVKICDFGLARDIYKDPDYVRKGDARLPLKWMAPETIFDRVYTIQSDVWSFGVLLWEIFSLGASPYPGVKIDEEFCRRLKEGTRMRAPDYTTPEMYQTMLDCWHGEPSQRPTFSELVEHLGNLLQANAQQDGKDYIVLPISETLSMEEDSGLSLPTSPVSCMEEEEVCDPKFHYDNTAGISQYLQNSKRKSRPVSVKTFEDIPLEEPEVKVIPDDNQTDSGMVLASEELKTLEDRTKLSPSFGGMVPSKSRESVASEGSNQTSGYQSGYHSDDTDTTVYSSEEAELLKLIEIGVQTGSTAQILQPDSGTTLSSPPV

[6] = molecular target: T1, Ephrin type-A receptor 6 (Homo sapiens) (UniProt Q9UF33); assay: Selectivity interaction (KinomeScan (DiscoverX)) EUB0000229b EPHA6; conditions: at 10 µM
T1 sequence (whole entry): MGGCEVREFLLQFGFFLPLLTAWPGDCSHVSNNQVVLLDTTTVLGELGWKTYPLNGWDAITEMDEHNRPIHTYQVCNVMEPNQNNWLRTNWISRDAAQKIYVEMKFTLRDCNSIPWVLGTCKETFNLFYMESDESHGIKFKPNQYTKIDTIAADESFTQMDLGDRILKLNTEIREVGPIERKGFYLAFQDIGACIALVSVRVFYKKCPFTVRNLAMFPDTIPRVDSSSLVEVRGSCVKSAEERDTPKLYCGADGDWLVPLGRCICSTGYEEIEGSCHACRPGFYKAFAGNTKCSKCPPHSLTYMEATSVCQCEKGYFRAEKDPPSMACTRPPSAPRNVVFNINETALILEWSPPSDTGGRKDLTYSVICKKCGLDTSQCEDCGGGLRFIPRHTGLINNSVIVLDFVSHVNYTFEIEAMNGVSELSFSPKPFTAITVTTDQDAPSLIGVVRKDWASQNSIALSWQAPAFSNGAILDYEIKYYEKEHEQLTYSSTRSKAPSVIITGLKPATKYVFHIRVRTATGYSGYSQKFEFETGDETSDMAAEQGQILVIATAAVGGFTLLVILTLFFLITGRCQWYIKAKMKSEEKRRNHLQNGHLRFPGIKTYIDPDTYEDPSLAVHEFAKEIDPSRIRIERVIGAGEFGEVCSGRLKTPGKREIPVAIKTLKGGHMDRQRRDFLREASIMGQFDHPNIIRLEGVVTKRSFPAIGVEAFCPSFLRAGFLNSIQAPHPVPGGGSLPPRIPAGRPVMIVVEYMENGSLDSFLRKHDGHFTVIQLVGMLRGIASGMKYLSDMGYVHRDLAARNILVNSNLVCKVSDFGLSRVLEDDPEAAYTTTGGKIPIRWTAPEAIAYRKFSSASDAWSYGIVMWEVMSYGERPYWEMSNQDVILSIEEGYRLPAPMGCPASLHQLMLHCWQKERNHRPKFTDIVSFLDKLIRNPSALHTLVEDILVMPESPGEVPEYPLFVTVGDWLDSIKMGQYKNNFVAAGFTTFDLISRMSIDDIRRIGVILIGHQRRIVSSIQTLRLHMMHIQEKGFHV

[7] = molecular target: T2, SNF-related serine/threonine-protein kinase (Homo sapiens) (UniProt Q9NRH2); assay: Selectivity interaction (KinomeScan (DiscoverX)) EUB0000666a SNRK; conditions: at 10 µM
T2 sequence (whole entry): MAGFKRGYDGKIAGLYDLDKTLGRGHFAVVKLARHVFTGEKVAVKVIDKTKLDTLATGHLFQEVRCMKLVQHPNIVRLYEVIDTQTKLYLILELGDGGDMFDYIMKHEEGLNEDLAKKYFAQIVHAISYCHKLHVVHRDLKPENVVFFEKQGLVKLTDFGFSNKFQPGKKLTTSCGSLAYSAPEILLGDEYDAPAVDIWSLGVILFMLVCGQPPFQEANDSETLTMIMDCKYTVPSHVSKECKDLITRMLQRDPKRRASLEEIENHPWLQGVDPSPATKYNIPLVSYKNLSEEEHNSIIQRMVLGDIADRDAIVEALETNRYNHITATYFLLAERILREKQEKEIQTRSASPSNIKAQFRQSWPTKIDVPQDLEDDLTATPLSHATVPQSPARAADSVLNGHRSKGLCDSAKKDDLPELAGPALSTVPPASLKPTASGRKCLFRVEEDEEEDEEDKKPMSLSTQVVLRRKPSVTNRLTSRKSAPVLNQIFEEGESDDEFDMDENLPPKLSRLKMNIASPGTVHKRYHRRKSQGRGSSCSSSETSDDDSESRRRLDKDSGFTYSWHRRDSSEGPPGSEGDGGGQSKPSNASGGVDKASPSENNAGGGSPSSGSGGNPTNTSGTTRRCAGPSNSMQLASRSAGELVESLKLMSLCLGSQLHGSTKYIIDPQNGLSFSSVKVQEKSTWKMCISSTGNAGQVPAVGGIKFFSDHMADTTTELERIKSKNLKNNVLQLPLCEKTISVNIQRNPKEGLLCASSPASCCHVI

[8] = molecular target: T3, Aurora kinase A (Homo sapiens) (UniProt O14965); assay: Selectivity interaction (Kinase panel (Carna Biosciences)) EUB0001542aTs STK6; conditions: at 1 µM
T3 sequence (whole entry): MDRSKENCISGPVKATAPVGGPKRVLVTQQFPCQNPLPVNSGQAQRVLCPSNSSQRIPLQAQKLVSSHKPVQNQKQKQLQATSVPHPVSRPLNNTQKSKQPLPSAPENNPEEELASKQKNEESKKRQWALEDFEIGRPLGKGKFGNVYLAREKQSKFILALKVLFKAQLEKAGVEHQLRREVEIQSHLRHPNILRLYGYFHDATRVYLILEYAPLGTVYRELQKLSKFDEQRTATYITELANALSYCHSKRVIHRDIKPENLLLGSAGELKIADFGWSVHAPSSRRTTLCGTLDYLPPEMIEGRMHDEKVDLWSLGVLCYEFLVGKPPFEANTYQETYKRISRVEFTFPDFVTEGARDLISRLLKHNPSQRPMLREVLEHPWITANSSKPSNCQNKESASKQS

Phosphatidylinositol 4,5-bisphosphate 3-kinase catalytic subunit alpha isoform (Homo sapiens), P42336 [H1047Y], sequence (P42336 whole entry H1047Y, canonical isoform): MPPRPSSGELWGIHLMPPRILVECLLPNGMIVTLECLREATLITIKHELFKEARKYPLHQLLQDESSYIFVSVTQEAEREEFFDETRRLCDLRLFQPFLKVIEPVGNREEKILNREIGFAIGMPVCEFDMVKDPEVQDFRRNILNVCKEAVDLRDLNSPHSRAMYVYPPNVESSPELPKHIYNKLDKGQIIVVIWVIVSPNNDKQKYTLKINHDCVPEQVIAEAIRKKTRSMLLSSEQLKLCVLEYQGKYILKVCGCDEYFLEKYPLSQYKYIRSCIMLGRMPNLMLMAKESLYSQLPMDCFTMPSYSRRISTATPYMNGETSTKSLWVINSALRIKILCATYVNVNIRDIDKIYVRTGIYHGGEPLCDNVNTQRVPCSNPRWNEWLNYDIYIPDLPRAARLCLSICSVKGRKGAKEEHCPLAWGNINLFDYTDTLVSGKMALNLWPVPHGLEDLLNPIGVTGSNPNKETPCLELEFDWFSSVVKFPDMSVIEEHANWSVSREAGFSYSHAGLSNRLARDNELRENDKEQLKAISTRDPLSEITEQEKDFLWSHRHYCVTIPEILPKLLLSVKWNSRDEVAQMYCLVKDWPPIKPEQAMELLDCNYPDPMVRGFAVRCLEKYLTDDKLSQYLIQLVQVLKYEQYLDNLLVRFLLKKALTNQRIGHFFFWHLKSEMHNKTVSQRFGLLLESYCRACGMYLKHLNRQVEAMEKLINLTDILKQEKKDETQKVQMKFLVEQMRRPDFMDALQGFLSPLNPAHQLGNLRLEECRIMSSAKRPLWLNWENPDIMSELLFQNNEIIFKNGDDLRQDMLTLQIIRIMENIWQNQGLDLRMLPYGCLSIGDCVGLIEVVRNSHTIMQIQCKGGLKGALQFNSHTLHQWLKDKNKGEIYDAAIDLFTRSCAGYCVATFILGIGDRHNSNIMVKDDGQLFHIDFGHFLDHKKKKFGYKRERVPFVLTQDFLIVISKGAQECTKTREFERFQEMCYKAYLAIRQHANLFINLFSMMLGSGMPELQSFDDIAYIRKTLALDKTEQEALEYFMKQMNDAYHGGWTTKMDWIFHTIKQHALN

SMILES: CNC(=O)Nc1ccc(-c2nc(N3CC4CCC(C3)O4)c3cnn(C4CCC5(CC4)OCCO5)c3n2)cc1
% of control [1]: 9.6%

SMILES: N#Cc1cccc(-c2c[nH]c3ncnc(N4CCOCC4)c23)c1
% of control [2]: 100%

SMILES: C=CC(=O)Nc1ccc(C(=O)Nc2[nH]nc3c2CN(C(=O)N[C@H](CN(C)C)c2ccccc2)C3(C)C)cc1
% of engagement [3]: -7.3%

% of inhibition [4]: 15.4%
SMILES: CC[C@@H]1[C@H](F)C(=O)N[C@@H]1COc1nccc2cc(C(N)=O)c(OC)cc12 [ZIMLOVISERTIB]

IC50 [5]: > 10 µM
SMILES: CCc1cccc(CC)c1NC(=O)c1nn(C)c2c1CCc1cnc(Nc3ccc(C(=O)NC4CCN(C)CC4)cc3OC(F)(F)F)nc1-2

SMILES: COc1cc(N(C)c2ccnc3ccc(C(F)(F)F)cc23)cc(OC)c1OC
% binding [6]: 97%

SMILES: O=C(NOC[C@H](O)CO)c1ccc(F)c(F)c1Nc1ccc(I)cc1F
% of control [7]: 100%

% of inhibition [8]: 97%
SMILES: Cn1cc(Nc2nccc(N3CC4CCC(C3)N4C(=O)[C@@H]3CC3(F)F)n2)cn1
